For this data set, the system named is human PBMCs. Put plainly: Human PBMC cytokine response assay (IFN-γ and IFN-α in cell-free medium by ELISA), with or without cPLGA.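 On IFN-α (pg/ml) mean: 20 µg/mL compound for 24 hours.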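 On IFN-γ (pg/ml) mean: 20 µg/mL compound for 24 hours.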 Type of data set: cell-based. The settings on record: for immunomodulatory activity (IFN-γ / IFN-α secretion), in words: used alone (no cPLGA); for IFN-a / IFN-g / IFN-a mean / IFN-g mean: Table 25; for IFN-a mean / IFN-g mean: mean of donors 28250-28253.

Where [1] appears, read: mean of donors 110, 112, 119, 120, Table 14.
Setting [2] is: mean of donors 28057-28060, Table 16.
[3] abbreviates: donor 28250, polynucleotides/spacers at amounts equivalent to the CIC, spacers alone 9 uM.
Setting [4] is: Table 24, mean of donors 28234-28237.

With “5′-GsGs-3′-C3-5′-TCGTGC-3′-C3-5′-ATCGAT-3′-C3-5′-GCACGA-3′-C3-5′-GGsGsGsGsG-3′ (s = phosphorothioate linkages, otherwise linkages are phosphodiester) [Compound C-85]”, the IFN-α runs as follows: (Table 11, donor 28042) 0 pg/mL; (Table 11, donor 28043) 0 pg/mL; (Table 11, donor 28044) 28 pg/mL; (Table 11, donor 28045) 24 pg/mL. Further, the IFN-γ came to 17 pg/mL (Table 11, donor 28042); 13 pg/mL (Table 11, donor 28043); 315 pg/mL (Table 11, donor 28044); 134 pg/mL (Table 11, donor 28045). Where the note is “Table 11, mean of donors”, this compound registered an IFN-α mean of 13 pg/mL. This compound also came in with an IFN-γ mean (Table 11, mean of donors) of 120 pg/mL.

Turning to “5′-CGTTCGA-3′-HEG-5′-CGTTCGA-3′-HEG-5′-CGTTCGA-3′ [Compound C-52]”, the IFN-α by setting is: (Table 10, donor 28042) 0 pg/mL; (Table 10, donor 28043) 3 pg/mL; (Table 10, donor 28044) 35 pg/mL; (Table 10, donor 28045) 48 pg/mL; (donor 110, Table 14) 2 pg/mL; (donor 112, Table 14) 2 pg/mL. For the same compound, the “IFN-α” value stood at 292 pg/mL (donor 119, Table 14) and 2 pg/mL (donor 120, Table 14). Further, the IFN-γ by setting is: (Table 10, donor 28042) 238 pg/mL; (Table 10, donor 28043) 214 pg/mL; (Table 10, donor 28044) 212 pg/mL; (Table 10, donor 28045) 28 pg/mL; (donor 110, Table 14) 472 pg/mL; (donor 112, Table 14) 48 pg/mL. Besides, the “IFN-γ” value (donor 119, Table 14) was found to be 40 pg/mL and the “IFN-γ” value (donor 120, Table 14) stood at 28 pg/mL. This compound also yielded an IFN-α mean (Table 10, mean of donors) of 22 pg/mL. The IFN-γ mean (Table 10, mean of donors) is 173 pg/mL. For the same compound, the “IFN-α (pg/ml) mean” value under setting [1] was determined as 75 pg/mL. Besides, under setting [1], the “IFN-γ (pg/ml) mean” value worked out at 147 pg/mL.

As to “5′-TCGTCG-3′-(HEG)4-5′-T-3′ [Compound C-16]”, the “activity when formulated with cPLGA, in words” value (“activity when formulated” below) is given as “all had significant activity when formulated on cPLGA” and the “immunomodulatory activity (IFN-γ / IFN-α secretion), in words” value is reported as “None of the CICs was active when used alone”. For the same compound, for the setting “donor 28057, Table 16”, the “IFN-α” value is 0 pg/mL and the “IFN-γ” value was 1 pg/mL. Where the note is “donor 28058, Table 16”, the “IFN-α” value stood at 0 pg/mL and the “IFN-γ” value is 2 pg/mL. Further, for the setting “donor 28059, Table 16”, the “IFN-α” value came out at 0 pg/mL and the “IFN-γ” value was 0 pg/mL. In addition, under “donor 28060, Table 16”, the “IFN-α” value came out at 0 pg/mL and the “IFN-γ” value was determined as 6 pg/mL. Besides, under setting [2], the “IFN-α (pg/ml) mean” value was 0 pg/mL and the “IFN-γ (pg/ml) mean” value stood at 2 pg/mL.

For “5′-TCGTCGT-3′-HEG-5′-TCGTCGT-3′-HEG-5′-TCGTCGT-3′ [Compound C-42]”, the IFN-α was determined as 0 pg/mL (Table 10, donor 28042); 29 pg/mL (Table 10, donor 28043); 24 pg/mL (Table 10, donor 28044); 0 pg/mL (Table 10, donor 28045); 250 pg/mL (donor 110, Table 14); 26 pg/mL (donor 112, Table 14). Moreover, the “IFN-α” value worked out at 156 pg/mL (donor 119, Table 14) and 36 pg/mL (donor 120, Table 14). The IFN-γ is, setting by setting: (Table 10, donor 28042) 198 pg/mL; (Table 10, donor 28043) 1067 pg/mL; (Table 10, donor 28044) 4000 pg/mL; (Table 10, donor 28045) 37 pg/mL; (donor 110, Table 14) 1508 pg/mL; (donor 112, Table 14) 204 pg/mL. Besides, the “IFN-γ” value is, setting by setting: (donor 119, Table 14) 56 pg/mL; (donor 120, Table 14) 56 pg/mL. Under “Table 10, mean of donors”, the IFN-α mean was determined as 13 pg/mL. Further, the IFN-γ mean (Table 10, mean of donors) is 1326 pg/mL. Further, under setting [1], the “IFN-α (pg/ml) mean” value worked out at 117 pg/mL. In addition, the “IFN-γ (pg/ml) mean” value under setting [1] came to 456 pg/mL.

For “(5′-TCGAACGTTCGA-3′ (SEQ ID NO: 155)-HEG)2-glycerol-HEG-5′-TCGAACGTTCGA-3′ (SEQ ID NO: 155) (three copies via HEG-glycerol branching, chemistry not fully specified) [Compound C-173]”, the IFN-α reads like this: (Example 58, 0.8 ug/ml, donor 1) 272 pg/mL; (Example 58, 0.8 ug/ml, donor 2) 1293 pg/mL; (Example 58, 0.8 ug/ml, donor 3) 1138 pg/mL; (Example 58, 0.8 ug/ml, donor 4) 2547 pg/mL; (Example 58, 4 ug/ml, donor 1) 3828 pg/mL; (Example 58, 4 ug/ml, donor 2) 2917 pg/mL. Further, the IFN-α runs as follows: (Example 58, 4 ug/ml, donor 3) 2197 pg/mL; (Example 58, 4 ug/ml, donor 4) 3563 pg/mL; (Example 58, 20 ug/ml, donor 1) 14381 pg/mL; (Example 58, 20 ug/ml, donor 2) 8060 pg/mL; (Example 58, 20 ug/ml, donor 3) 66 pg/mL; (Example 58, 20 ug/ml, donor 4) 299 pg/mL. Besides, the IFN-α mean amounted to 1312 pg/mL (Example 58, 0.8 ug/ml, mean of four individuals); 3126 pg/mL (Example 58, 4 ug/ml, mean of four individuals); 5701 pg/mL (Example 58, 20 ug/ml, mean of four individuals). Further, the “IFN-α from human PBMC compared with parent oligonucleotide P-17, in words” value (low doses (e.g., 0.8 ug/ml), four individuals) was “induce significantly more IFN-α”.

Take `OCC(O)CO` [Glycerol]: the IFN-a mean stood at 16 pg/mL and the IFN-g mean came out at 8 pg/mL. Besides, the IFN-a (donor 28250) was determined as 16 pg/mL. The IFN-g under setting [3] amounted to 16 pg/mL. Besides, under “donor 28251”, the IFN-a stood at 16 pg/mL and the IFN-g amounted to 12 pg/mL. In addition, under “donor 28252”, the IFN-a amounted to 16 pg/mL and the IFN-g was 2 pg/mL. Where the note is “donor 28253”, the IFN-a was determined as 16 pg/mL and the IFN-g came to 1 pg/mL.

On to “(5′-TCGTCGA-3′-TEG)2-glycerol-TEG-5′-TCGTCGA-3′ [Compound C-103]”, for which the IFN-α reads like this: (Table 24, donor 28234) 16 pg/mL; (Table 24, donor 28235) 21 pg/mL; (Table 24, donor 28236) 126 pg/mL; (Table 24, donor 28237) 213 pg/mL. For the same compound, the IFN-γ reads like this: (Table 24, donor 28234) 21 pg/mL; (Table 24, donor 28235) 44 pg/mL; (Table 24, donor 28236) 250 pg/mL; (Table 24, donor 28237) 1854 pg/mL. Under setting [4], this compound showed an IFN-α mean of 94 pg/mL. Moreover, under setting [4], the IFN-γ mean amounted to 542 pg/mL. Also, the “IFN-α induction, in words” value (used alone) is given as “HEG (C-94)>TEG (C-103)>C3 (C-104)=no linker (C-28)”.

As to “5′-TCGACTC-3′-HEG-5′-TCGAGCG-3′-HEG-5′-TTCTCTT-3′ [Compound C-63]”, the “IFN-α” value came out at 294 pg/mL (donor 110, Table 14); 38 pg/mL (donor 112, Table 14); 464 pg/mL (donor 119, Table 14); 228 pg/mL (donor 120, Table 14). Moreover, the “IFN-γ” value reads like this: (donor 110, Table 14) 1536 pg/mL; (donor 112, Table 14) 376 pg/mL; (donor 119, Table 14) 80 pg/mL; (donor 120, Table 14) 60 pg/mL. For the same compound, the “IFN-α (pg/ml) mean” value under setting [1] turned out to be 256 pg/mL. For the same compound, the “IFN-γ (pg/ml) mean” value under setting [1] is 513 pg/mL.

For the compound “5′-TCGTCG-3′-(HME)15-5′-T-3′ [Compound C-14]”, the “activity when formulated” value is recorded as “all had significant activity when formulated on cPLGA” and the “immunomodulatory activity (IFN-γ / IFN-α secretion), in words” value was “None of the CICs was active when used alone”. Besides, for the setting “donor 28057, Table 16”, the “IFN-α” value turned out to be 0 pg/mL and the “IFN-γ” value worked out at 3 pg/mL. Further, for the setting “donor 28058, Table 16”, the “IFN-α” value stood at 0 pg/mL and the “IFN-γ” value was 1 pg/mL. For the same compound, where the note is “donor 28059, Table 16”, the “IFN-α” value was determined as 0 pg/mL and the “IFN-γ” value is 1 pg/mL. Under “donor 28060, Table 16”, the “IFN-α” value is 0 pg/mL and the “IFN-γ” value came out at 3 pg/mL. Also, under setting [2], the “IFN-α (pg/ml) mean” value came out at 0 pg/mL and the “IFN-γ (pg/ml) mean” value was determined as 2 pg/mL.

As to `OCCOCCOCCO` [Triethylene glycol], the IFN-a mean turned out to be 16 pg/mL and the IFN-g mean was 6 pg/mL. Further, the IFN-a (donor 28250) came to 16 pg/mL. Besides, the IFN-g under setting [3] stood at 15 pg/mL. Also, where the note is “donor 28251”, the IFN-a is 16 pg/mL and the IFN-g came to 1 pg/mL. Besides, under “donor 28252”, the IFN-a was 16 pg/mL and the IFN-g amounted to 7 pg/mL. Further, under “donor 28253”, the IFN-a is 16 pg/mL and the IFN-g is 1 pg/mL.

On to “5′-TCGTCG-3′-HEG-5′-TCGA-3′ [Compound C-40]”, for which the “activity when formulated” value was “significant activity when formulated with cPLGA” and the “immunomodulatory activity (IFN-γ / IFN-α secretion), in words” value is “inactive in this experiment”. Besides, for the setting “Table 10, donor 28042”, the IFN-α came to 0 pg/mL and the IFN-γ was 26 pg/mL. Moreover, for the setting “Table 10, donor 28043”, the IFN-α amounted to 26 pg/mL and the IFN-γ was 55 pg/mL. For the same compound, under “Table 10, donor 28044”, the IFN-α stood at 31 pg/mL and the IFN-γ was found to be 20 pg/mL. In addition, under “Table 10, donor 28045”, the IFN-α came to 2 pg/mL and the IFN-γ stood at 23 pg/mL. Under “Table 10, mean of donors”, this compound yielded an IFN-α mean of 15 pg/mL and an IFN-γ mean of 31 pg/mL. Under “donor 110, Table 14”, the “IFN-α” value is 6 pg/mL and the “IFN-γ” value was found to be 180 pg/mL. Under “donor 112, Table 14”, the “IFN-α” value was determined as 198 pg/mL and the “IFN-γ” value was found to be 12 pg/mL. Moreover, for the setting “donor 119, Table 14”, the “IFN-α” value came out at 152 pg/mL and the “IFN-γ” value worked out at 4 pg/mL. For the same compound, under “donor 120, Table 14”, the “IFN-α” value worked out at 2 pg/mL and the “IFN-γ” value was determined as 20 pg/mL. Under setting [1], the “IFN-α (pg/ml) mean” value was 90 pg/mL and the “IFN-γ (pg/ml) mean” value amounted to 54 pg/mL.

For the origin of these results see patent US9028845B2, “Chimeric immunomodulatory compounds and methods of using the same-IV” (Dynavax Technologies Corporation, priority 2001, dated 2015).
